Results reported in patent publication US20220242870A1, “HETEROCYCLE-FUSED PYRIMIDINE DERIVATIVE AND USE THEREOF” (VORONOI Inc., priority 2019, published 2022).

Experiments:
Assay in all cases: scanMAX kinase assay panel
Format in all cases: binding
[1] = molecular target: T1, ABL1(Q252H)-nonphosphorylated (Homo sapiens, UniProt P00519, Q252H); settings: read-out: control percentage (% control)
T1 construct: purchased DiscoverX (scanMAX panel, contract assay)
Method: (§1) The activities of the compounds according to the present invention to more diverse enzymes were evaluated. Specifically, it was decided that the enzyme selectivity of Example 74 selected from the compounds of Examples 1 to 129 was measured at the request of DiscoverX, and the experiment was conducted using a scanMAX™ kinase assay panel. At this time, as a drug to treat the enzyme, a solution prepared by dissolving in DMSO at a concentration of 1 μM was used, and the control percentage (% control) was determined by the method of Equation 1 below, and the results were shown in Table 2 below.
(§2) In Equation above, the positive control and negative control mean compounds showing control percentages of 0% and 100% as DMSO, respectively.

[2] = molecular target: T2, BIKE (Homo sapiens, UniProt Q9NSY1); settings: read-out: control percentage (% control)
T2 construct: purchased DiscoverX (scanMAX panel, contract assay)
Method: as §1, §2

[3] = molecular target: T3, CDK4-cyclinD3 (Homo sapiens, UniProt P11802); settings: read-out: control percentage (% control)
T3 construct: purchased DiscoverX (scanMAX panel, contract assay)
Method: as §1, §2

[4] = molecular target: T4, CLK2 (Homo sapiens, UniProt P49760); settings: read-out: control percentage (% control)
T4 construct: purchased DiscoverX (scanMAX panel, contract assay)
Method: as §1, §2

[5] = molecular target: T5, CSNK1G2 (Homo sapiens, UniProt P78368); settings: read-out: control percentage (% control)
T5 construct: purchased DiscoverX (scanMAX panel, contract assay)
Method: as §1, §2

[6] = molecular target: T6, DCAMKL3 (Homo sapiens, UniProt Q9C098); settings: read-out: control percentage (% control)
T6 construct: purchased DiscoverX (scanMAX panel, contract assay)
T6 sequence (Q9C098 whole entry): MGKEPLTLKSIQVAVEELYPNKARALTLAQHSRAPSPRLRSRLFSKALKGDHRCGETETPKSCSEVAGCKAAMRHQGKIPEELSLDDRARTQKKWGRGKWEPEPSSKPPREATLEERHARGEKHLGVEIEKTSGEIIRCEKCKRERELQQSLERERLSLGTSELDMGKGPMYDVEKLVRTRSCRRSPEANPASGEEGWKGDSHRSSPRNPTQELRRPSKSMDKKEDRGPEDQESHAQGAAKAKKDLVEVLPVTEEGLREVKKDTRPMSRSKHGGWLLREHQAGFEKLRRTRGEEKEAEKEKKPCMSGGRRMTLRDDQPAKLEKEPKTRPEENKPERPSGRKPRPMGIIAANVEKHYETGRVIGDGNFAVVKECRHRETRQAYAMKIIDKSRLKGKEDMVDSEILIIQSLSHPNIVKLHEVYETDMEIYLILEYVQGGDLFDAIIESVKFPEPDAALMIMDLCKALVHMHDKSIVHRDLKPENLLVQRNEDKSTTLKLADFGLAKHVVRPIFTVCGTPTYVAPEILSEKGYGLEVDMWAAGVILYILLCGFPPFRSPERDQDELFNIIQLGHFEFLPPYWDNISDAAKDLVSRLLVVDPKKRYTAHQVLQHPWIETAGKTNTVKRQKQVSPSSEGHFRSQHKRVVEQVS
Method: as §1, §2

[7] = molecular target: T7, EGFR(L861Q) (Homo sapiens, UniProt P00533, L861Q); settings: read-out: control percentage (% control)
T7 construct: purchased DiscoverX scanMAX kinase assay panel
Method: as §1, §2

[8] = molecular target: T8, FES (Homo sapiens, UniProt P07332); settings: read-out: control percentage (% control)
T8 construct: purchased DiscoverX scanMAX kinase assay panel
T8 sequence (P07332 whole entry): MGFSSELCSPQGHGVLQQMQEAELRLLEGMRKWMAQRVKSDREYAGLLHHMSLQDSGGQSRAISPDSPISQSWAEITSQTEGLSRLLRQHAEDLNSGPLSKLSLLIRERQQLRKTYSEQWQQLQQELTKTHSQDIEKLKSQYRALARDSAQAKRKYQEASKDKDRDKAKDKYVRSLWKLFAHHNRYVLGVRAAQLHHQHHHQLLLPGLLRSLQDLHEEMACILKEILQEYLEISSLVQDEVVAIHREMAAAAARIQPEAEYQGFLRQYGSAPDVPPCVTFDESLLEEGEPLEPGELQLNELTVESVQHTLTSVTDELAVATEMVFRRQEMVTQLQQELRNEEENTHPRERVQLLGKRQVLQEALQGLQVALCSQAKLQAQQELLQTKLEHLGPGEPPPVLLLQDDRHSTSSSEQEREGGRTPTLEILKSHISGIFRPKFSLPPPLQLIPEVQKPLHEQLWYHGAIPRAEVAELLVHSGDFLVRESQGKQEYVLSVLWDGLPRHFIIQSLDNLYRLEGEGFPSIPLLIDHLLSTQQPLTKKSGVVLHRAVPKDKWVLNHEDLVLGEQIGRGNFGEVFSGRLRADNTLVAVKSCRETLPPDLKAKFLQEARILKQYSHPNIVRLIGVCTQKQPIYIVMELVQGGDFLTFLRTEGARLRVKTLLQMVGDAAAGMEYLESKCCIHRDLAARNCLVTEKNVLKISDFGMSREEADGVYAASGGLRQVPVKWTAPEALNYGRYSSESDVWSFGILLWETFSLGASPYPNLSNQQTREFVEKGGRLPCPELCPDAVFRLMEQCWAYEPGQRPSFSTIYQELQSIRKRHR
Method: as §1, §2

[9] = molecular target: T9, FLT3(D835H) (Homo sapiens, UniProt P36888, D835H); settings: read-out: control percentage (% control)
T9 construct: purchased DiscoverX scanMAX kinase assay panel
Method: as §1, §2

[10] = molecular target: T10, FLT3(D835Y) (Homo sapiens, UniProt P36888, D835Y); settings: read-out: control percentage (% control)
T10 construct: purchased DiscoverX scanMAX kinase assay panel
Method: as §1, §2

[11] = system: FLT3(ITD, D835V); settings: 1 μM
Method: as §1, §2

[12] = molecular target: T11, INSR (Homo sapiens, UniProt P06213); settings: read-out: control percentage (% control)
T11 construct: purchased DiscoverX scanMAX kinase assay panel
Method: as §1, §2

[13] = molecular target: T12, JAK3(JH1domain-catalytic) (Homo sapiens, UniProt P52333); settings: read-out: control percentage (% control)
T12 construct: JAK3(JH1domain-catalytic); purchased DiscoverX scanMAX kinase assay panel
Method: as §1, §2

[14] = molecular target: T13, JNK1 (Homo sapiens, UniProt P45983); settings: read-out: control percentage (% control)
T13 construct: purchased DiscoverX scanMAX kinase assay panel
T13 sequence (P45983 whole entry): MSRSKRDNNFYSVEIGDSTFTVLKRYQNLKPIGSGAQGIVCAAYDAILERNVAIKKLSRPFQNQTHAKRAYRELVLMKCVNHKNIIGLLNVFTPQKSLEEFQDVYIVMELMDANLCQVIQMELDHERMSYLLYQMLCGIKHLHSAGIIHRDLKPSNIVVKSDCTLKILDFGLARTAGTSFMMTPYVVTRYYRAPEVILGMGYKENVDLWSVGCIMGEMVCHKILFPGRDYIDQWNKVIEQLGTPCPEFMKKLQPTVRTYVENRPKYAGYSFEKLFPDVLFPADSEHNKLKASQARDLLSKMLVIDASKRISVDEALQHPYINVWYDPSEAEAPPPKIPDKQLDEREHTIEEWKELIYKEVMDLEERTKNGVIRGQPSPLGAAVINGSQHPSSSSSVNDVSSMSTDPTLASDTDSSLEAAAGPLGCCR
Method: as §1, §2

[15] = molecular target: T14, JNK3 (Homo sapiens, UniProt P53779); settings: read-out: control percentage (% control)
T14 construct: purchased DiscoverX scanMAX kinase assay panel
T14 sequence (P53779 whole entry): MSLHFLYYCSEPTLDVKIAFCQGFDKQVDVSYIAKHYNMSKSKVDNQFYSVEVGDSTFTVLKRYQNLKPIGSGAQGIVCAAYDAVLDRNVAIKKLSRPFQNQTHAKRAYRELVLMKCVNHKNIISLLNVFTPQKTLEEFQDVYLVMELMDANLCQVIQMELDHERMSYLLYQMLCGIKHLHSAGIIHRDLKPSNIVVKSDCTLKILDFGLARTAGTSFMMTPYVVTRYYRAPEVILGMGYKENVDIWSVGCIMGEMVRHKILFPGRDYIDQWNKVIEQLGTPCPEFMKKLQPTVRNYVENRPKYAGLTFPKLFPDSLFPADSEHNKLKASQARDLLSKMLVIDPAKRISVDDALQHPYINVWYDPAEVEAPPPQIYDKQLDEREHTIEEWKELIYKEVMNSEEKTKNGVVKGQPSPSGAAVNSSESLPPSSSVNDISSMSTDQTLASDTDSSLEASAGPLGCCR
Method: as §1, §2

[16] = molecular target: T15, KIT(L576P) (Homo sapiens, UniProt P10721, L576P); settings: read-out: control percentage (% control)
T15 construct: purchased DiscoverX scanMAX kinase assay panel
Method: as §1, §2

[17] = molecular target: T16, MAP4K2 (Homo sapiens, UniProt Q12851); settings: read-out: control percentage (% control)
T16 construct: purchased DiscoverX scanMAX kinase assay panel
Method: as §1, §2

[18] = molecular target: T17, MAP4K4 (Homo sapiens, UniProt O95819); settings: read-out: control percentage (% control)
T17 construct: purchased DiscoverX scanMAX kinase assay panel
Method: as §1, §2

[19] = molecular target: T18, MAP4K5 (Homo sapiens, UniProt Q9Y4K4); settings: read-out: control percentage (% control)
T18 construct: purchased DiscoverX scanMAX kinase assay panel
Method: as §1, §2

[20] = molecular target: T19, MARK4 (Homo sapiens, UniProt Q96L34); settings: read-out: control percentage (% control)
T19 construct: purchased DiscoverX scanMAX kinase assay panel
Method: as §1, §2

[21] = molecular target: T20, MELK (Homo sapiens, UniProt Q14680); settings: read-out: control percentage (% control)
T20 construct: purchased DiscoverX scanMAX kinase assay panel
Method: as §1, §2

[22] = molecular target: T21, MERTK (Homo sapiens, UniProt Q12866); settings: read-out: control percentage (% control)
T21 construct: purchased DiscoverX scanMAX kinase assay panel
Method: as §1, §2

[23] = molecular target: T22, PIP5K2C (Homo sapiens, UniProt Q8TBX8); settings: read-out: control percentage (% control)
T22 construct: purchased DiscoverX scanMAX kinase assay panel
Method: as §1, §2

[24] = molecular target: T23, PRP4 (Homo sapiens, UniProt Q13523); settings: read-out: control percentage (% control)
T23 construct: purchased DiscoverX scanMAX kinase assay panel
T23 sequence (Q13523 whole entry): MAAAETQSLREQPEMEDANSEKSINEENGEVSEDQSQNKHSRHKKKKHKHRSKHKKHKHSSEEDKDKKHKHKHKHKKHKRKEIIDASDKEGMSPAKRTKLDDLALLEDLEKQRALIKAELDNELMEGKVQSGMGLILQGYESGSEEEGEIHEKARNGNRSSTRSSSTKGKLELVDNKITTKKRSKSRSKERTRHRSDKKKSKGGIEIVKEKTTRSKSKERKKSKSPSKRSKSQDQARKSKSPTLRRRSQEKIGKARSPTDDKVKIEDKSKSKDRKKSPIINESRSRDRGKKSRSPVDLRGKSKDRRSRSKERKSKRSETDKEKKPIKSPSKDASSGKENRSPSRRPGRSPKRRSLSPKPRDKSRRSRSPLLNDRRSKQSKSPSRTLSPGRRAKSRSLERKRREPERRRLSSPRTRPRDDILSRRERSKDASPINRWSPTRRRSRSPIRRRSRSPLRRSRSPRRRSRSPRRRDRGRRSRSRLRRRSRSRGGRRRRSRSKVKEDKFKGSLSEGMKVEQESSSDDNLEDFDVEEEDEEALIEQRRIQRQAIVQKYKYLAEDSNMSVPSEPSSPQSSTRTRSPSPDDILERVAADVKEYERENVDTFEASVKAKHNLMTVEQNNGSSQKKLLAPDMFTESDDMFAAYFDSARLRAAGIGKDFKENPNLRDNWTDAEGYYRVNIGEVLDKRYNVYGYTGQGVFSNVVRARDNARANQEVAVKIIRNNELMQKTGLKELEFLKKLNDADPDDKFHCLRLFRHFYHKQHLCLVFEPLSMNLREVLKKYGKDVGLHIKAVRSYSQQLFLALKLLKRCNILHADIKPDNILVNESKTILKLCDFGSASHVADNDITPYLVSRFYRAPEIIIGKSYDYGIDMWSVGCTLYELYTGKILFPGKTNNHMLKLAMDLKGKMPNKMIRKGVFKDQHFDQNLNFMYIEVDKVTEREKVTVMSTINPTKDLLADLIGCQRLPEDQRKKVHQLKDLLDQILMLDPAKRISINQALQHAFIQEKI
Method: as §1, §2

[25] = molecular target: T24, PYK2 (Homo sapiens, UniProt Q14289); settings: read-out: control percentage (% control)
T24 construct: purchased DiscoverX scanMAX kinase assay panel
Method: as §1, §2

[26] = molecular target: T25, RET(M918T) (Homo sapiens, UniProt P07949, M918T); settings: read-out: control percentage (% control)
T25 construct: purchased DiscoverX scanMAX kinase assay panel
T25 sequence (P07949 29-1114 M918T): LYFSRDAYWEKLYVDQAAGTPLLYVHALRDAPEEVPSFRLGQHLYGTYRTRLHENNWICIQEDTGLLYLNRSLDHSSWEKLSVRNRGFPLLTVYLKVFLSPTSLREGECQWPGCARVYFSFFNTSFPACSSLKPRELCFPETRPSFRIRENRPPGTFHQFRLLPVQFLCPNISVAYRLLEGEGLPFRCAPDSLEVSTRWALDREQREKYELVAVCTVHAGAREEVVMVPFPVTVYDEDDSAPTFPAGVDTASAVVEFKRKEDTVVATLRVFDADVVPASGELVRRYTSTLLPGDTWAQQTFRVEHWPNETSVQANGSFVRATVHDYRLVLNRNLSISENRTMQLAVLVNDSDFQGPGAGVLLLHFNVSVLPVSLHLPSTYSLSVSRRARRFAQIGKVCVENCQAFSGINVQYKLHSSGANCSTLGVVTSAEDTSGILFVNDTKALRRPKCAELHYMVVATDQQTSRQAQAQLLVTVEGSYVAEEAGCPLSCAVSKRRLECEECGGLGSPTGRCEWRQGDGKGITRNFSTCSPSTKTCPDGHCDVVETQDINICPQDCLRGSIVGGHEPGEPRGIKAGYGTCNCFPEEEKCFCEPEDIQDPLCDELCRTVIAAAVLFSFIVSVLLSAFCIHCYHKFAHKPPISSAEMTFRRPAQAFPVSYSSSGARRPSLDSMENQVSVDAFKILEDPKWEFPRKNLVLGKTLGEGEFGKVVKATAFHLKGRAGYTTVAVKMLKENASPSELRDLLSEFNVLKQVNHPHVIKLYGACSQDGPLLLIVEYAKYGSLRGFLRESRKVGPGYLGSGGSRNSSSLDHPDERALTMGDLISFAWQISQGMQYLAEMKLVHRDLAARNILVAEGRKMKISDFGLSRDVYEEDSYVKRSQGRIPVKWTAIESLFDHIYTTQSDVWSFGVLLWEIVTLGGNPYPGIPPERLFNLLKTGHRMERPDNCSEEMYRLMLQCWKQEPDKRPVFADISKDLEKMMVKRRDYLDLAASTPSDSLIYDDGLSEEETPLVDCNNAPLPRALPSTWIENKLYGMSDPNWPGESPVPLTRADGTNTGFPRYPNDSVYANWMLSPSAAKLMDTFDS
Method: as §1, §2

[27] = molecular target: T26, RIOK1 (Homo sapiens, UniProt Q9BRS2); settings: read-out: control percentage (% control)
T26 construct: purchased DiscoverX scanMAX kinase assay panel
T26 sequence (Q9BRS2 whole entry): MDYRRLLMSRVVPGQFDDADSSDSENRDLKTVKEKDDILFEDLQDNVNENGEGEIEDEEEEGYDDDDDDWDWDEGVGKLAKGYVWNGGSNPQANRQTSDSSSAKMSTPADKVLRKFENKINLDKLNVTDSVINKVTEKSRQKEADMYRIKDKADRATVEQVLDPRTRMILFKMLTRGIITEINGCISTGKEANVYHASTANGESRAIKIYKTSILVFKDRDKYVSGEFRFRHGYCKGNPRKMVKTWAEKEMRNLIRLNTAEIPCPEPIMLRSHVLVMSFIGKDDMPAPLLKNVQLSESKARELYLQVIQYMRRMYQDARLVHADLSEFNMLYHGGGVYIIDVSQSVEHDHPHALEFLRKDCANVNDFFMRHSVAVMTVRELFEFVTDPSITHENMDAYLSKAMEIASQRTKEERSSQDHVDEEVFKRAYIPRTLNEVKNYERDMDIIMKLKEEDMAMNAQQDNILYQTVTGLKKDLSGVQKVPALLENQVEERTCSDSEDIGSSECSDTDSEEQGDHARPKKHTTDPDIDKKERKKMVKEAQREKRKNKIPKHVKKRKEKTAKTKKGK
Method: as §1, §2

[28] = molecular target: T27, RIOK3 (Homo sapiens, UniProt O14730); settings: read-out: control percentage (% control)
T27 construct: purchased DiscoverX scanMAX kinase assay panel
Method: as §1, §2

[29] = molecular target: T28, ROCK2 (Homo sapiens, UniProt O75116); settings: read-out: control percentage (% control)
T28 construct: purchased DiscoverX scanMAX kinase assay panel
Method: as §1, §2

[30] = molecular target: T29, SRPK1 (Homo sapiens, UniProt Q96SB4); settings: read-out: control percentage (% control)
T29 construct: purchased DiscoverX
Method: as §1, §2

[31] = molecular target: T30, TRKB (Homo sapiens, UniProt Q16620); settings: read-out: control percentage (% control)
T30 construct: purchased DiscoverX
Method: as §1, §2

[32] = molecular target: T31, TTK (Homo sapiens, UniProt P33981); settings: read-out: control percentage (% control)
T31 construct: purchased DiscoverX
Method: as §1, §2

[33] = molecular target: T32, TYK2(JH2domain-pseudokinase) (Homo sapiens, UniProt P29597); settings: read-out: control percentage (% control)
T32 construct: TYK2(JH2domain-pseudokinase); purchased DiscoverX
Method: as §1, §2

[34] = molecular target: T33, ULK1 (Homo sapiens, UniProt O75385); settings: read-out: control percentage (% control)
T33 construct: purchased DiscoverX
Method: as §1, §2

[35] = molecular target: T34, YSK4 (Homo sapiens, UniProt Q56UN5); settings: read-out: control percentage (% control)
T34 construct: purchased DiscoverX
Method: as §1, §2

SMILES: CN1CCN(c2ccc(Nc3nc(N4OCC[C@H]4c4ccccc4)c4cc[nH]c4n3)cc2)CC1 [Example 74, (S)-N-(4-(4-methylpiperazin-1-yl)phenyl)-4-(3-phenylisoxazolidin-2-yl)-7H-pyrrolo[2,3-d]pyrimidin-2-amine]
- remaining binding at 1 µM [1]: 24%
- remaining binding at 1 µM [2]: 1.8%
- remaining binding at 1 µM [3]: 3%
- remaining binding at 1 µM [4]: 9.2%
- remaining binding at 1 µM [5]: 21%
- remaining binding at 1 µM [6]: 15%
- remaining binding at 1 µM [7]: 30%
- remaining binding at 1 µM [8]: 32%
- remaining binding at 1 µM [9]: 21%
- remaining binding at 1 µM [10]: 0.15%
- control percentage (% control) [11]: 0%
- remaining binding at 1 µM [12]: 19%
- remaining binding at 1 µM [13]: 0%
- remaining binding at 1 µM [14]: 2.7%
- remaining binding at 1 µM [15]: 4.5%
- remaining binding at 1 µM [16]: 31%
- remaining binding at 1 µM [17]: 12%
- remaining binding at 1 µM [18]: 30%
- remaining binding at 1 µM [19]: 21%
- remaining binding at 1 µM [20]: 18%
- remaining binding at 1 µM [21]: 2%
- remaining binding at 1 µM [22]: 29%
- remaining binding at 1 µM [23]: 26%
- remaining binding at 1 µM [24]: 20%
- remaining binding at 1 µM [25]: 27%
- remaining binding at 1 µM [26]: 20%
- remaining binding at 1 µM [27]: 5.5%
- remaining binding at 1 µM [28]: 3.6%
- remaining binding at 1 µM [29]: 8%
- remaining binding at 1 µM [30]: 14%
- remaining binding at 1 µM [31]: 8.3%
- remaining binding at 1 µM [32]: 13%
- remaining binding at 1 µM [33]: 2.6%
- remaining binding at 1 µM [34]: 8.1%
- remaining binding at 1 µM [35]: 8.6%
